The first assay concerns Mycobacterium tuberculosis H37Rv. The assay can be described thus: Mycobacterium tuberculosis H37Rv inhibition assay (MIC, microtiter plate, alamar blue). In kind it is cell-based. Particulars: ATCC 25618 / H37Rv, H37Rv strain (ATCC25618), Middlebrook 7H9, 37° C. six days, alamar blue fluorescence after 48 hours, read-out: MIC value. (The colour change of resazurin is a common sign of viable cells or microbes.)
With `O=C1COc2cc(Cl)c(CNC[C@H]3CCN(CC4Cn5c(=O)ccc6ccc(F)c4c65)C3)nc2N1` (stereo partly drawn) [Example 33, 1-{[(3R)-3-({[(7-Chloro-3-oxo-3,4-dihydro-2H-pyrido [3,2-b][1,4]oxazin-6-yl)methyl]amino}methyl)-1-pyrrolidinyl]methyl}-9-fluoro-1,2-dihydro-4H-pyrrolo[3,2,1-ij]quinolin-4-one], the MIC was not above 4 µg/mL.
On to `O=c1ccc2ccc(F)c3c2n1CC3CN1CCC(NCc2cc3c(cn2)OCCO3)CC1` (centres unmarked) [Example 2, 1-({4-[(2,3-Dihydro[1,4]dioxino[2,3-c]pyridin-7-ylmethyl)amino]-1-piperidinyl}methyl)-9-fluoro-1,2-dihydro-4H-pyrrolo[3,2,1-ij]quinolin-4-one], for which the MIC was not above 4 µg/mL.
`O=c1ccc2ccc(F)c3c2n1CC3CN1CCC(NCc2ccc3c(c2)C(O)CCC3)CC1` (centres unmarked) [Example 75, 9-fluoro-1-[(4-{[(8-hydroxy-5,6,7,8-tetrahydro-2-naphthalenyl)methyl]amino}-1-piperidinyl)methyl]-1,2-dihydro-4H-pyrrolo[3,2,1-ij]quinolin-4-one]: the MIC was not above 4 µg/mL.
Regarding `O=C1COc2ccc(CNC[C@H]3CCN(CC4Cn5c(=O)ccc6ccc(F)c4c65)C3)nc2N1` (stereo partly drawn) [Example 35, 9-Fluoro-1-{[(3R)-3-({[(3-oxo-3,4-dihydro-2H-pyrido[3,2-b][1,4]oxazin-6-yl)methyl]amino}methyl)-1-pyrrolidinyl]methyl}-1,2-dihydro-4H-pyrrolo[3,2,1-ij]quinolin-4-one], the MIC was not above 4 µg/mL.
Same read-out and setting: in the case of `O=c1ccc2ccc(F)c3c2n1CC3(O)CN1CCC(NCc2cc3c(nn2)OCCS3)CC1` (centres unmarked) [Example 29, 1-({4-[(6,7-Dihydro[1,4]oxathiino[2,3-c]pyridazin-3-ylmethyl)amino]-1-piperidinyl}methyl)-9-fluoro-1-hydroxy-1,2-dihydro-4H-pyrrolo[3,2,1-ij]quinolin-4-one] it was not above 4 µg/mL.

Staying with this assay, now noted: ATCC 25618 / H37Rv, read-out: MIC value, H37Rv strain (ATCC25618), Middlebrook 7H9, 37° C. six days, alamar blue fluorescence after 48 hours.
Take `O=c1ccc2ccc(F)c3c2n1CC3CN1CCC(NCc2cnc3c(c2)OCCO3)CC1` (centres unmarked) [Example 22, 1-({4-[(2,3-dihydro[1,4]dioxino[2,3-b]pyridin-7-ylmethyl)amino]-1-piperidinyl}methyl)-9-fluoro-1,2-dihydro-4H-pyrrolo[3,2,1-ij]quinolin-4-one]: the MIC was not above 4 µg/mL.
As for `O=c1ccc2ccc(F)c3c2n1CC3CN1CC[C@H](NCc2cc3c(cn2)OCC3)[C@H](O)C1` (stereo partly drawn) [Example 8, 1-({(3R,4S)-4-[(2,3-Dihydrofuro[2,3-c]pyridin-5-ylmethyl)amino]-3-hydroxy-1-piperidinyl}methyl)-9-fluoro-1,2-dihydro-4H-pyrrolo [3,2,1-ij]quinolin-4-one], the MIC is not above 4 µg/mL.
Same read-out and setting: the figure for `O=c1ccc2ccc(F)c3c2n1C[C@H]3CN1CCC(NCc2ccc3c(c2F)OCCO3)CC1` [Example 80, (1R)-9-fluoro-1-[(4-{[(5-fluoro-2,3-dihydro-1,4-benzodioxin-6-yl)methyl]amino}-1-piperidinyl)methyl]-1,2-dihydro-4H-pyrrolo[3,2,1-ij]quinolin-4-one] is not above 4 µg/mL.

Broadly, the MIC is the lowest concentration found to suppress growth.

For the origin of these results see US20100048544A1, “PYRROLO (3, 2, 1-IJ) QUINOLINE-4-ONE-DERIVATIVES FOR TREATING TUBERCULOSIS” (priority 2007, published 2010).
